Results as given in ChEMBL document CHEMBL3612057, “Discovery of indolizines containing triazine moiety as new leads for the development of antitumoral agents targeting mitotic events” (2015).
The source made the active and inactive calls. The rule behind the calls is not given here.

Assays:
RPMI-8226 = assay: Cytotoxicity against human RPMI8226 cells assessed as growth inhibition at 10 uM after 24 hrs by SRB assay; assay type: functional
MDA-MB-435 = assay: Cytotoxicity against human MDA-MB-435 cells assessed as growth inhibition at 10 uM after 24 hrs by SRB assay; assay type: functional
SR = assay: Cytotoxicity against human SR cells assessed as growth inhibition at 10 uM after 24 hrs by SRB assay; assay type: functional; details: read-out: GI
ACHN = assay: Cytotoxicity against human ACHN cells assessed as growth inhibition at 10 uM after 24 hrs by SRB assay; assay type: functional
HOP-92 = assay: Cytotoxicity against human HOP92 cells assessed as growth inhibition at 10 uM after 24 hrs by SRB assay; assay type: functional
SK-MEL-5 = assay: Cytotoxicity against human SK-MEL-5 cells assessed as growth inhibition at 10 uM after 24 hrs by SRB assay; assay type: functional
SK-OV-3 = assay: Cytotoxicity against human SKOV3 cells assessed as growth inhibition at 10 uM after 24 hrs by SRB assay; assay type: functional
CCRF-CEM = assay: Cytotoxicity against human CCRF-CEM cells assessed as growth inhibition at 10 uM after 24 hrs by SRB assay; assay type: functional
MCF7 = assay: Cytotoxicity against human MCF7 cells assessed as growth inhibition at 10 uM after 24 hrs by SRB assay; assay type: functional
A549 = assay: Cytotoxicity against human A549 cells assessed as growth inhibition at 10 uM after 24 hrs by SRB assay; assay type: functional
MDA-MB-231 = assay: Cytotoxicity against human MDA-MB-231 cells assessed as growth inhibition at 10 uM after 24 hrs by SRB assay; assay type: functional; details: MDA-MB-231, 24 h, read-out: GI
CAKI-1 = assay: Cytotoxicity against human CAKI-1 cells assessed as growth inhibition at 10 uM after 24 hrs by SRB assay; assay type: functional
UACC-62 = assay: Cytotoxicity against human UACC62 cells assessed as growth inhibition at 10 uM after 24 hrs by SRB assay; assay type: functional
HOP-62 = assay: Cytotoxicity against human HOP62 cells assessed as growth inhibition at 10 uM after 24 hrs by SRB assay; assay type: functional
NCI-H522 = assay: Cytotoxicity against human NCI-H522 cells assessed as growth inhibition at 10 uM after 24 hrs by SRB assay; assay type: functional
HCT-116 = assay: Cytotoxicity against human HCT116 cells assessed as growth inhibition at 10 uM after 24 hrs by SRB assay; assay type: functional
NCI-H460 = assay: Cytotoxicity against human NCI-H460 cells assessed as growth inhibition at 10 uM after 24 hrs by SRB assay; assay type: functional
T47D = assay: Cytotoxicity against human T47D cells assessed as growth inhibition at 10 uM after 24 hrs by SRB assay; assay type: functional
786-0 = assay: Cytotoxicity against human 786-0 cells assessed as growth inhibition at 10 uM after 24 hrs by SRB assay; assay type: functional
OVCAR-4 = assay: Cytotoxicity against human OVCAR4 cells assessed as growth inhibition at 10 uM after 24 hrs by SRB assay; assay type: functional
[1] = Cytotoxicity against human Hs578T cells assessed as growth inhibition at 10 uM after 24 hrs by SRB assay; assay type: functional; details: Hs-578T, read-out: GI
HL-60(TB) = assay: Cytotoxicity against human HL-60(TB) cells assessed as growth inhibition at 10 uM after 24 hrs by SRB assay; assay type: functional
U-251 = assay: Cytotoxicity against human U251 cells assessed as growth inhibition at 10 uM after 24 hrs by SRB assay; assay type: functional
PC-3 = assay: Cytotoxicity against human PC3 cells assessed as growth inhibition at 10 uM after 24 hrs by SRB assay; assay type: functional
RXF 393 = assay: Cytotoxicity against human RXF393 cells assessed as growth inhibition at 10 uM after 24 hrs by SRB assay; assay type: functional; details: RXF 393, 24 h, read-out: GI
UACC-257 = assay: Cytotoxicity against human UACC257 cells assessed as growth inhibition at 10 uM after 24 hrs by SRB assay; assay type: functional
NCI-H226 = assay: Cytotoxicity against human NCI-H226 cells assessed as growth inhibition at 10 uM after 24 hrs by SRB assay; assay type: functional
TK-10 = assay: Cytotoxicity against human TK10 cells assessed as growth inhibition at 10 uM after 24 hrs by SRB assay; assay type: functional
OVCAR-3 = assay: Cytotoxicity against human OVCAR3 cells assessed as growth inhibition at 10 uM after 24 hrs by SRB assay; assay type: functional
NCI/ADR-RES = assay: Cytotoxicity against human NCI/ADR-RES cells assessed as growth inhibition at 10 uM after 24 hrs by SRB assay; assay type: functional
K562 = assay: Cytotoxicity against human K562 cells assessed as growth inhibition at 10 uM after 24 hrs by SRB assay; assay type: functional
Ovis aries = species: Ovis aries; assay: Inhibition of sheep tubulin polymerization at 100 uM by fluorescence assay
SK-MEL-28 = assay: Cytotoxicity against human SK-MEL-28 cells assessed as growth inhibition at 10 uM after 24 hrs by SRB assay; assay type: functional
OVCAR-8 = assay: Cytotoxicity against human OVCAR8 cells assessed as growth inhibition at 10 uM after 24 hrs by SRB assay; assay type: functional
Malme-3M = assay: Cytotoxicity against human MALME-3M cells assessed as growth inhibition at 10 uM after 24 hrs by SRB assay; assay type: functional
SNB-75 = assay: Cytotoxicity against human SNB75 cells assessed as growth inhibition at 10 uM after 24 hrs by SRB assay; assay type: functional; details: SNB-75, 24 h, read-out: GI
SF-295 = assay: Cytotoxicity against human SF295 cells assessed as growth inhibition at 10 uM after 24 hrs by SRB assay; assay type: functional
SF-539 = assay: Cytotoxicity against human SF539 cells assessed as growth inhibition at 10 uM after 24 hrs by SRB assay; assay type: functional

COc1ccc(C(=O)c2cc(-c3nc(OC)nc(OC)n3)c3cc(C#N)ccn23)cc1
growth inhibition (GI) (RPMI-8226): inactive
growth inhibition (GI) (MDA-MB-435): inactive
inhibition of growth at 10 µM (SR): 13%
growth inhibition (GI) (ACHN): inactive
growth inhibition (GI) (HOP-92): inactive
growth inhibition (GI) (SK-MEL-5): inactive
growth inhibition (GI) (SK-OV-3): inactive
growth inhibition (GI) (CCRF-CEM): inactive
growth inhibition (GI) (MCF7): inactive
growth inhibition (GI) (A549): inactive
inhibition of growth at 10 µM (MDA-MB-231): 18%
growth inhibition (GI) (CAKI-1): inactive
growth inhibition (GI) (UACC-62): inactive
inhibition of growth at 10 µM (HOP-62; HOP-62, 24 h, read-out: GI): 25%
growth inhibition (GI) (NCI-H522): inactive
growth inhibition (GI) (HCT-116): inactive
growth inhibition (GI) (NCI-H460): inactive
growth inhibition (GI) (T47D): inactive
growth inhibition (GI) (786-0): inactive
growth inhibition (GI) (OVCAR-4): inactive
inhibition of growth at 10 µM [1]: 16%
growth inhibition (GI) (HL-60(TB)): inactive
growth inhibition (GI) (U-251): inactive
growth inhibition (GI) (PC-3): inactive
inhibition of growth at 10 µM (RXF 393): 14%
growth inhibition (GI) (UACC-257): inactive
growth inhibition (GI) (NCI-H226): inactive
growth inhibition (GI) (TK-10): inactive
growth inhibition (GI) (OVCAR-3): inactive
growth inhibition (GI) (NCI/ADR-RES): inactive
growth inhibition (GI) (K562): inactive
inhibition (Ovis aries): inactive
growth inhibition (GI) (SK-MEL-28): inactive
growth inhibition (GI) (OVCAR-8): inactive
growth inhibition (GI) (Malme-3M): inactive
inhibition of growth at 10 µM (SNB-75): 46%
growth inhibition (GI) (SF-295): inactive
growth inhibition (GI) (SF-539): inactive

COc1nc(OC)nc(-c2cc(C(=O)c3cc(OC)c(OC)c(OC)c3)n3c(-c4ccccc4)cccc23)n1
inhibition of growth at 10 µM (RPMI-8226; RPMI-8226, 24 h, read-out: GI): 52%
growth inhibition (GI) (MDA-MB-435): inactive
inhibition of growth at 10 µM (SR): 29%
inhibition of growth at 10 µM (ACHN; read-out: GI): 30%
growth inhibition (GI) (HOP-92): inactive
inhibition of growth at 10 µM (SK-MEL-5; SK-MEL-5, 24 h, read-out: GI): 67%
growth inhibition (GI) (SK-OV-3): inactive
inhibition of growth at 10 µM (CCRF-CEM; read-out: GI): 62%
inhibition of growth at 10 µM (MCF7; MCF7, 24 h, read-out: GI): 22%
inhibition of growth at 10 µM (A549; A549, 24 h, read-out: GI): 28%
inhibition of growth at 10 µM (MDA-MB-231): 23%
inhibition of growth at 10 µM (CAKI-1; CAKI-1, 24 h, read-out: GI): 43%
inhibition of growth at 10 µM (UACC-62; UACC-62, 24 h, read-out: GI): 39%
growth inhibition (GI) (HOP-62): inactive
inhibition of growth at 10 µM (NCI-H522; NCI-H522, 24 h, read-out: GI): 11%
growth inhibition (GI) (HCT-116): inactive
inhibition of growth at 10 µM (NCI-H460; NCI-H460, 24 h, read-out: GI): 14%
inhibition of growth at 10 µM (T47D; read-out: GI): 32%
growth inhibition (GI) (786-0): inactive
inhibition of growth at 10 µM (OVCAR-4; OVCAR-4, 24 h, read-out: GI): 18%
inhibition of growth at 10 µM [1]: 14%
growth inhibition (GI) (HL-60(TB)): inactive
growth inhibition (GI) (U-251): inactive
inhibition of growth at 10 µM (PC-3; PC-3, 24 h, read-out: GI): 37%
inhibition of growth at 10 µM (RXF 393): 15%
growth inhibition (GI) (UACC-257): inactive
growth inhibition (GI) (NCI-H226): inactive
growth inhibition (GI) (TK-10): inactive
inhibition of growth at 10 µM (OVCAR-3; OVCAR-3, 24 h, read-out: GI): 28%
inhibition of growth at 10 µM (NCI/ADR-RES; read-out: GI): 38%
inhibition of growth at 10 µM (K562; K562, 24 h, read-out: GI): 29%
inhibition (Ovis aries): inactive
growth inhibition (GI) (SK-MEL-28): inactive
inhibition of growth at 10 µM (OVCAR-8; OVCAR-8, 24 h, read-out: GI): 41%
growth inhibition (GI) (Malme-3M): inactive
inhibition of growth at 10 µM (SNB-75): 23%
inhibition of growth at 10 µM (SF-295; SF-295, 24 h, read-out: GI): 40%
growth inhibition (GI) (SF-539): inactive
